Data reported in article PMC6200136 (Journal of medicinal chemistry, 2017).

Assays:
phospho-CDK1 (Tyr15) = experiment: Immunoblotting of phospho-CDK1; format: cell-based, human; conditions: synchronized HEK293T and MDA-MB-231 cells, 6 h drug treatment
[1] = test system: HEK293T, MM1.S, and MDA-MB-231 cells; experiment: Cell viability across HEK293T, MM1.S and MDA-MB-231; format: cell-based; conditions: Homo sapiens, 72 h, read-out: cell viability IC50 values (range over cell lines)
[2] = test system: phosphorylated TCTP (PLK1 substrate); experiment: Immunoblotting of phospho-TCTP; format: cell-based, human; conditions: synchronized HEK293T and MDA-MB-231 cells, 6 h drug treatment
Myt1-KD = target: T1, Myt1-KD (Homo sapiens, UniProt Q99640); experiment: DSF thermal shift, Myt1 kinase domain; format: binding; conditions: DSF screen, 100 μM
T1 sequence (Q99640 75-361): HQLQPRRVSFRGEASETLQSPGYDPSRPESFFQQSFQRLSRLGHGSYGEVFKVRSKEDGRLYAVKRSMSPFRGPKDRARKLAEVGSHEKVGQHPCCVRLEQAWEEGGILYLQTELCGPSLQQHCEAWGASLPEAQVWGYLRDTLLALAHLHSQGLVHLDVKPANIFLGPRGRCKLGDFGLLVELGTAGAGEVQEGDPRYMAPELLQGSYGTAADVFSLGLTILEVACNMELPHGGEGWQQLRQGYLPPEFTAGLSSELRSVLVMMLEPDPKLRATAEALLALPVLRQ

SMILES | effect on CDK1 phosphorylation (phospho-CDK1 (Tyr15)) | IC50 [1] [nM] | reduction of phosphorylation levels, times less effective than BI-2536 and 1 [2] | binding potential for Myt1 (in words) (Myt1-KD)
CC[C@@H]1C(=O)N(C)c2cnc(Nc3ccc(C(=O)NC4CCN(C)CC4)cc3OC)nc2N1C1CCCC1 [BI-2536] | no effect | – | – | –
C=CCn1c(=O)c2cnc(Nc3ccc(N4CCN(C)CC4)cc3)nc2n1-c1cccc(C(C)(C)O)n1 [MK-1775] | reducing the levels of phosphorylated CDK1 | 290 to 310 | about 10 times | –
C[C@@H](Oc1cc(-n2cnc3ccc(CN4CCN(C)CC4)cc32)sc1C(N)=O)c1ccccc1C(F)(F)F [compound 1, (R)-5-(6-((4-methylpiperazin-1-yl)methyl)-1H-benzo[d]imidazol-1-yl)-3-(1-(2-(trifluoromethyl)phenyl)-ethoxy)thiophene-2-carboxamide] | no effect | – | – | –
CC(=O)NCC(=O)N1[C@@H]2CC[C@H]1c1ccc(Nc3ncc(C(F)(F)F)c(NC4CCC4)n3)cc12 [compound 2] | – | – | – | no binding potential
